Reference: patent US6495525B1, “VLA-4 inhibitor: oMePUPA-V” (Biogen, Inc., priority 1998, dated 2002)

Key:
Set-up in all cases: endogenous in cells; host or cells: Jurkat (human T cell line)
[1] = biological target: T1, VLA-4 (Homo sapiens, UniProt P05556+P13612); experiment: Competition / dissociation assay with 3H-known inhibitor on Jurkat cells; assay type: binding; details: Mn+2-activated VLA-4
Description: Jurkat cells were maintained in RPMI-1640 medium plus 10% fetal bovine serum at 37° C. in a tissue culture incubator. For binding studies, the cells were pelleted by centrifugation, washed two times with TBS (50 mM Tris HCl, 150 mM NaCl, 0.1% bovine serum albumin, 2 mM glucose, 10 mM HEPES pH 7.4), suspended at approximately 2×10^6 cells/ml in TBS, and counted using a Neubauer hemocytometer. The cells were further diluted to 1.5×10^6/ml in the buffers indicated and subjected to the specific treatments defined for each experiment. The cells were then pelleted by centrifugation, resuspended in 100 μl of assay buffer, and transferred to a scintillation vial containing 2.9 ml of ScintiVerse II (Fisher Scientific). Cell-associated radioactivity was quantified by scintillation counting. Counts bound under these conditions measures integrin that is not occupied by the test compound and is therefore free to bind the ^3H-known inhibitor. […] Specific counts bound were calculated by subtracting non-specific counts from total counts bound.
A series of competition studies were performed to verify that oMePUPA-V and the known inhibitor compete for the same site on VLA-4. […] Third, Mn^+2-activated Jurkat cells were treated with saturating amounts of oMePUPA-V, and the rate at which the oMePUPA-V dissociated was measured. […]

[2] = biological target: T1, VLA-4; experiment: VCAM-Ig Direct Binding Assay (DBA) on Jurkat cells
Excerpt: A direct binding assay may also be employed to quantitate the inhibitory activity of the compounds of this invention. In this assay, a VCAM-IgG fusion protein containing the first two immunoglobulin domains of VCAM (D1D2) attached above the hinge region of an IgG1 molecule (“VCAM 2D-IgG”), is conjugated to a marker enzyme, such as alkaline phosphatase (“AP”). The synthesis of this VCAM-IgG fusion is described in PCT publication WO 90/13300, the disclosure of which is herein incorporated by reference. The conjugation of that fusion to a marker enzyme is achieved by cross-linking methods well-known in the art.
The VCAM-IgG enzyme conjugate is then placed in the wells of a multi-well filtration plate, such as that contained in the Millipore Multiscreen Assay System (Millipore Corp., Bedford, Ma.). Varying concentrations of the test inhibitory compound are then added to the wells followed by addition of VLA-4-expressing cells. […]
Following incubation, the wells are vacuum drained, leaving behind the cells and any bound VCAM. Quantitation of bound VCAM is determined by adding an appropriate colorimetric substrate for the enzyme conjugated to VCAM-IgG and determining the amount of reaction product. […]
VCAM-Ig was constructed and purified as published (Jakubowski, A. et al. Cell Adhesion and Communication 3:131-142, 1995). […] Binding to VLA-4 was assessed on the human T cell line, Jurkat (α4β1). […]

[3] = biological target: T1, VLA-4; experiment: CS1 Cell Adhesion Assay, Jurkat cells to CS1/BSA conjugate; assay type: cell-based
Description: The peptide NH2-cysteine-tyrosine-CS-1 was synthesized and coupled to BSA-SMCC (SMCC is a heterobifunctional crosslinker which reacts with free amino groups on BSA and the sole cysteine of the synthetic peptide) at a CS1/BSA ratio of 10:1. Wells were coated overnight with 100 μL of conjugate diluted to a final concentration of 1 ug/ml. The next day the wells were blocked with BSA in PBS for one hour and then washed three times.
The human T cell line, Jurkat, was labeled with 2 μM BCECF-AM, a fluorescent dye (2′, 7′, bis-(2-carboxyethyl)-5 and -6) carboxy fluorescein acetoxymethyl ester (Molecular Probes Inc., Eugene, Oregon; catalog #B-1150) that is internalized and deesterified thus trapping the dye within live cells. Jurkat cells (1×10^5 cells/well) in buffer containing 1 mM Mn^+2 were added to the coated plates in the presence of three-fold serial dilutions of inhibitor. Each concentration was assayed in duplicate. After 30 minutes at room temperature, the plates were inverted and washed three times or until no cells were adherent to control wells coated with BSA alone. CS1-adherent cells were quantitated in a Cytofluor fluorescent platereader using an excitation wavelength of 485 nm and an emission wavelength of 530 nm.
Cells adhered to CS1/BSA in the absence of compound served as the 0% inhibition control whereas cells adhering to BSA alone served as the 100% inhibition control. IC50's were calculated using Deltagraph software, version 5.

T1 sequence (P13612 34-1032): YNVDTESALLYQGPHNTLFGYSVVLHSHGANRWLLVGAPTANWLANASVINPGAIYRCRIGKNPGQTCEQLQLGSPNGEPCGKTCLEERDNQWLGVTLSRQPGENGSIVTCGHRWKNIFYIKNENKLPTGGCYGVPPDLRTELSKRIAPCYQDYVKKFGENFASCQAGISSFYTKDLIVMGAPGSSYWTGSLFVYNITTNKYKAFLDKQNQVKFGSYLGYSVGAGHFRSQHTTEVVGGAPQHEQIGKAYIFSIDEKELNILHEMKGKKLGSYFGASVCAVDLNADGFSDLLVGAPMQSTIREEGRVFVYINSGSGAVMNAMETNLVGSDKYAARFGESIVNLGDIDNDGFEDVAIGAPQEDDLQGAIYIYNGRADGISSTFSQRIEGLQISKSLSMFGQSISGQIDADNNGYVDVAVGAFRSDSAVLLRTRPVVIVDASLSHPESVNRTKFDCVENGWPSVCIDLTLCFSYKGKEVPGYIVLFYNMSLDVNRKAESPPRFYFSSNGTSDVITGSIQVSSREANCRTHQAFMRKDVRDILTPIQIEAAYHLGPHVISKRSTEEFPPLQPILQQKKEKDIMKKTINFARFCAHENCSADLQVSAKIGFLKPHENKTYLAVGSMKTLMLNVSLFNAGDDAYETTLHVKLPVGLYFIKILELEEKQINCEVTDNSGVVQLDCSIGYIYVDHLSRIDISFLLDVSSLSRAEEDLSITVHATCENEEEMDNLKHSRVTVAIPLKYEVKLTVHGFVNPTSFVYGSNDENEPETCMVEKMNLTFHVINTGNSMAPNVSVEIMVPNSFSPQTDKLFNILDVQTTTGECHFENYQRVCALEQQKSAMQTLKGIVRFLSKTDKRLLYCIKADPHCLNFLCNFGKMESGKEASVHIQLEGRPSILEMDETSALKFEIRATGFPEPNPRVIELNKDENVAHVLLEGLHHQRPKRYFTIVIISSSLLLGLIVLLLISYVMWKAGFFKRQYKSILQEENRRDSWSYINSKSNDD
T1 sequence (P05556 21-798): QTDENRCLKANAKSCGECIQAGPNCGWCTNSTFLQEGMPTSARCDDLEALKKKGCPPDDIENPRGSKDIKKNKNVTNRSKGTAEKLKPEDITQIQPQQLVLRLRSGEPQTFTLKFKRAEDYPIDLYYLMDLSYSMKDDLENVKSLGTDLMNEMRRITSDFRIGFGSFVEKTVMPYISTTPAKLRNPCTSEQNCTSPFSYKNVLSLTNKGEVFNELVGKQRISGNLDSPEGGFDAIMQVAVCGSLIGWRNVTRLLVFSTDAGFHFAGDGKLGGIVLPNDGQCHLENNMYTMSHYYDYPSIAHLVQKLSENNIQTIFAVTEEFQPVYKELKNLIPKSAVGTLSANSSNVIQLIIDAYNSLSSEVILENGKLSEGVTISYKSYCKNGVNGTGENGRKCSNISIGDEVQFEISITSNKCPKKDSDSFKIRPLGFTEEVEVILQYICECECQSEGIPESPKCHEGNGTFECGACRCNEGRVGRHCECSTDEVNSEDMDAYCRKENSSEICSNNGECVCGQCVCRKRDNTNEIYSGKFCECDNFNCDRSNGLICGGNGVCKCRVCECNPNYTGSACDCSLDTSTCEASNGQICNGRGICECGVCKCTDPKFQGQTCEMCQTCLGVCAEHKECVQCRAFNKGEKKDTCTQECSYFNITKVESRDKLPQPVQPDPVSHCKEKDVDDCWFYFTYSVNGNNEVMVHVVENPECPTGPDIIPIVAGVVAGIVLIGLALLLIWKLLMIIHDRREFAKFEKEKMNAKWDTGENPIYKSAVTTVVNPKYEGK

In the case of Cc1ccccc1NC(=O)Nc1ccc(CC(=O)N2CCC[C@H]2C(=O)N[C@H](C)CC(=O)O)cc1 [oMePUPA-V], the “concentration needed to compete 3H-known inhibitor binding, relative to cold known inhibitor” value [1] is reported as 10 fold, the IC50 ([2]; 1 mM MnCl2, read-out: IC50 ± SD, Jurkat cell VCAM-Ig Binding) is reported as 8 ± 1 nM and the “specificity for VLA-4” value ([2]; versus α4β7, VLA-5 and gpIIbIIIa) is reported as > 10,000 fold. The IC50 ([3]; 1 mM MnCl2, read-out: IC50 ± SD, Jurkat cell CS1 adhesion) was 22 nM and the “blocking of Jurkat cell adhesion to CS1 (in words)” value ([3]; in the presence of Mn+2) was “completely block”.
